Blank lines part the entries; values can stand above or below the molecule they belong to.
Experiments:
[1] = Evaluation of solubility in tetrahydrofuran; type: physicochemical; settings: 25° C., {100/(100+X)}×100
Method: The thus obtained triphenylamine derivatives HTM-1 to HTM-14 each as the hole transport material were evaluated for the solubility. A small amount of tetrahydrofuran was added to 100 mg of each triphenylamine derivative under the temperature of 25° C. Then, the resulting sample was vibrated and left to stand. This process was repeated to measure the added amount X (mg) of tetrahydrofuran dissolved in the triphenylamine derivative to saturation. With the added amount X, the equation below gives the solubility. Solubility (%)={100/(100+X)}×100 <Evaluation of Ionization Potentials>

[2] = Evaluation of ionization potential (AC-1 ultraviolet photoelectron analyzer); type: physicochemical; settings: atmosphere type ultraviolet photoelectron analyzing apparatus AC-1
Text: The respective triphenylamine derivatives HTM-1 to HTM-14 were each evaluated for the ionization potential. An atmosphere type ultraviolet photoelectron analyzing apparatus (AC-1 manufactured by Riken Keiki Co., Ltd.) was used to measure the ionization potential.

Compound: COc1ccc(N(c2ccc(/C=C/C=C/c3ccccc3)cc2)c2ccc(/C=C/C=C/c3ccccc3)cc2)cc1 [HTM-12]
THF Solubility [1]: 7.5% | Ionization Potential [2]: 5.43 eV

Compound: CCCCOc1ccccc1N(c1ccc(/C=C/C=C/c2ccccc2)cc1)c1ccc(/C=C/C=C/c2ccccc2)cc1 [HTM-3]
THF Solubility [1]: 24.1% | Ionization Potential [2]: 5.39 eV

Compound: CCOc1ccccc1N(c1ccc(/C=C/C=C/c2ccccc2)cc1)c1ccc(/C=C/C=C/c2ccccc2)cc1 [HTM-1]
THF Solubility [1]: 25.0% | Ionization Potential [2]: 5.38 eV

Compound: Cc1ccc(N(c2ccc(/C=C/C=C/c3ccccc3)cc2)c2ccc(/C=C/C=C/c3ccccc3)cc2)c(C)c1 [HTM-9]
THF Solubility [1]: 12.3% | Ionization Potential [2]: 5.46 eV

Compound: Cc1cccc(C)c1N(c1ccc(/C=C/C=C/c2ccccc2)cc1)c1ccc(/C=C/C=C/c2ccccc2)cc1 [HTM-11]
THF Solubility [1]: 11.4% | Ionization Potential [2]: 5.55 eV

Compound: CCOc1cccc(C)c1N(c1ccc(/C=C/C=C/c2ccccc2)cc1)c1ccc(/C=C/C=C/c2ccccc2)cc1 [HTM-2]
THF Solubility [1]: 23.5% | Ionization Potential [2]: 5.37 eV

The remaining lines, values ahead:

THF Solubility [1]: 21.0% | Ionization Potential [2]: 5.48 eV
Compound: C(/C=C/c1ccc(N(c2ccc(/C=C/C=C/c3ccccc3)cc2)c2ccc(Oc3ccccc3)cc2)cc1)=C\c1ccccc1 [HTM-8]

THF Solubility [1]: 17.8% | Ionization Potential [2]: 5.42 eV
Compound: CCCCc1ccc(N(c2ccc(/C=C/C=C/c3ccccc3)cc2)c2ccc(/C=C/C=C/c3ccccc3)cc2)cc1 [HTM-10]

THF Solubility [1]: 22.8% | Ionization Potential [2]: 5.39 eV
Compound: CCOc1cc(C)ccc1N(c1ccc(/C=C/C=C/c2ccccc2)cc1)c1ccc(/C=C/C=C/c2ccccc2)cc1 [HTM-4]

THF Solubility [1]: 6.3% | Ionization Potential [2]: 5.43 eV
Compound: COc1ccccc1N(c1ccc(/C=C/C=C/c2ccccc2)cc1)c1ccc(/C=C/C=C/c2ccccc2)cc1 [HTM-14]

THF Solubility [1]: 25.8% | Ionization Potential [2]: 5.39 eV
Compound: CCOc1ccc(N(c2ccc(/C=C/C=C/c3ccccc3)cc2)c2ccc(/C=C/C=C/c3ccccc3)cc2)c(C)c1 [HTM-7]

THF Solubility [1]: 6.1% | Ionization Potential [2]: 5.45 eV
Compound: COc1cccc(N(c2ccc(/C=C/C=C/c3ccccc3)cc2)c2ccc(/C=C/C=C/c3ccccc3)cc2)c1 [HTM-13]

THF Solubility [1]: 24.5% | Ionization Potential [2]: 5.38 eV
Compound: COc1ccc(N(c2ccc(/C=C/C=C/c3ccccc3)cc2)c2ccc(/C=C/C=C/c3ccccc3)cc2)c(C)c1 [HTM-6]

THF Solubility [1]: 20.0% | Ionization Potential [2]: 5.33 eV
Compound: COc1ccc(N(c2ccc(/C=C/C=C/c3ccccc3)cc2)c2ccc(/C=C/C=C/c3ccccc3)cc2)c(OC)c1 [HTM-5]

Source: patent publication US9376371B2, “Triphenylamine derivative, method for manufacturing the same, and electrophotographic photosensitive member” (KYOCERA DOCUMENT SOLUTIONS INC., priority 2013, dated 2016)
